Results from US20070037253A1, “Methods and compositions for treatment of arthritis and cancer” (priority 2003, published 2007).
Entries after “also recorded” stand apart in the source; their conditions may differ. Where a SMILES comes first, the peptide text is derived from it.

Assays:
Assay type in all cases: cell-based
secreted MMP-9 = target: T1, secreted MMP-9 (Oryctolagus cuniculus, UniProt P41246); assay: Secreted gelatinase activity of IL-1β-stimulated rabbit synovial fibroblasts treated with peptide (FIG. 4B); conditions: cells treated with 1-10 μM peptide, IL-1β stimulation
T1 construct: endogenous in cells; host or cells: HIG-82 rabbit fibroblast-like synoviocytes (ATCC CRL-1832)
T1 sequence (P41246 107-707): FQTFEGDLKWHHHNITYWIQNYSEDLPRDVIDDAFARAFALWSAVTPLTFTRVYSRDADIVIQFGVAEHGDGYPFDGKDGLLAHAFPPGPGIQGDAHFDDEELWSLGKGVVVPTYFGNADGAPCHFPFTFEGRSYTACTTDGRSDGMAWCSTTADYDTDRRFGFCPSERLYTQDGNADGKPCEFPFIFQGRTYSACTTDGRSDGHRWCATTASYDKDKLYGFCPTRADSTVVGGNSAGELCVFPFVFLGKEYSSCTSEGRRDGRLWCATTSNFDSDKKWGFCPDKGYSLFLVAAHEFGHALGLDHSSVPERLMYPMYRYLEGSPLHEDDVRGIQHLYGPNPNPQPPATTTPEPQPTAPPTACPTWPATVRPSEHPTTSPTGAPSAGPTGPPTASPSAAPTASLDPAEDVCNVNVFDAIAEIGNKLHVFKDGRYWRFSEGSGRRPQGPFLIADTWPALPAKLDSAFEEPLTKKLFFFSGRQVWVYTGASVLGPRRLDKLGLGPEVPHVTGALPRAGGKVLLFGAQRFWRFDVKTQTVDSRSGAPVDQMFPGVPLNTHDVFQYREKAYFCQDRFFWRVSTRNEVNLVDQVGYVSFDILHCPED
Protocol: Gelatinase activity in the supernatants from cells induced with IL-1β (5 ng) for 48 h was analyzed by gelatin zymography. (A) Supernatants (activated with final 1 mM APMA at 30° C. for 30 min) were pre-incubated with various inhibitors. (5 μM peptides or 1-2 μM Calbiochem MMP inhibitor II) for 1 h at 25° C. prior to zymographic analyses—Lane 1, without activation (no inhibitor); Lane 2, with activation (no inhibitor); Lanes 3-8, with activation plus inhibitor: 3, P-NT-II; 4, PIP [59-67] monomer; 5, PIP [57-67] dimer; 6, PIP [59-67] dimer; 7 and 8, positive control MMP Inhibitor II (Calbiochem) at 1 and 2 μM concentrations. (B) Rabbit synovial fibroblasts were stimulated by IL-1β in the presence or absence of 1-10 μM of PIP [59-67] dimer for 48 h. Culture supernatants were concentrated by centrifugation (Centricon centrifugal filter devices, M.W. cutoff 30,000) and activated with APMA (1 mM final) before measurement of gelatinase activity by gelatin zymography. Lanes: 1 (−peptide−APMA); 2 (−peptide+APMA); 3 (+1 μM peptide+APMA); 4 (+5 μM peptide+APMA); 5 (+7.5 μM peptide+APMA); 6 (+10 μM peptide+APMA).
Gelatin zymography: human synovial fluid, purified human recombinant MMP-2 and -9 or APMA-activated concentrated culture supernatant samples (10 μL) was mixed (1:1) with Laemmli sample buffer, loaded on 4% acrylamide stacking gel and electrophoresed (120 V) at 4° C. on a 10% acrylamide-resolving minigel containing 0.1% gelatin. After electrophoresis for 1 h, the gels were soaked in 2.5% Triton X-100 on a shaker for 1 h, changing the solution after 30 min, to eliminate SDS. After overnight incubation in zymogen activation buffer [50 mM Tris-HCl, pH 7.5, containing 10 mM CaCl2 and 5 mM ZnCl2] at 37° C., the gels were rinsed in distilled water, and stained for 3 hr with […], after which clear bands of digested gelatin were clearly visible. The gels were briefly rinsed in distilled water and scanned by the Bio-Rad GS-710 Calibrated Imaging Densitometer.
FLSC culture and inhibition of extracellular MMP activity: All experiments were performed on HIG-82 rabbit fibroblast-like synoviocytes (FLSCs) obtained from American Type Culture Collection (Manassas, Va.; catalogue No. CRL-1832). FLSCs were grown in Ham's F-12 medium containing 10% fetal bovine serum (FBS) and 1% penicillin/streptomycin, as recommended by the supplier. For experimental purposes, FLSCs were seeded into 12-well plates, grown to near confluence, and then serum starved (Ham's F-12 without FBS or penicillin/streptomycin) for 16 h. […] After activation with APMA (1 mM final concentration), the samples were measured for MMP-1 activity using BIOMOL AK-404 QuantiZyme Assay system, and for MMP-2 and -9 activities by gelatin zymography.

MMP-1 gene transcript = assay: QRT-PCR relative mRNA expression in IL-1β-stimulated rabbit synovial fibroblasts
Text: (§1) FIG. 5 is a view of the effect of peptide on the relative expression of MMP and sPLA2 genes. QRT-PCR was used for assessing relative mRNA expression levels of IL-1β-stimulated rabbit synovial fibroblast cells in the presence and absence of the candidate lead peptide PIP [59-67] dimer. The amount of each mRNA was obtained by quantitative RT-PCR. The relative levels of gene expression were normalized to the housekeeping gene (GAPDH). […] Values are expressed as ±S.E.
(§2) RNA isolation of cultured FLSCs: FLSCs were grown to 80% confluence on 12-well culture dishes and starved in a serum-free medium with 5 μM PIP [59-67] dimer for 2 h. The cells were then stimulated with 5 ng/mL IL-1β (Recombinant human, Chemicon, USA.) for 24 h, washed with cold PBS and total RNA isolated from peptide-treated (n=3) and untreated (n=3) FLSCs using RNeasy® mini kit. The RNA samples were subsequently treated with RNase-free Dnase-I at room temperature for 20 min and stored at −80° C. until use. The quality and quantity of extracted RNA was determined by spectrophotometry (Bio-Rad, USA). All RNA samples used for QRT-PCR experiments were of highest purity with A260/A280 ratios of 1.9-2.1. The integrity and relative contamination with residual genomic DNA was assessed by 1% denaturing agarose gel electrophoresis.
(§3) Quantitative Real Time RT-PCR (LightCycler): Quantitative fluorescence-based real-time PCR was carried out according to the manufacturer's instructions using the LightCycler system with LightCycler FastStart DNA Master^PLUS SYBR Green I kit (Roche Diagnostics, Germany) as an independent method for assessing relative gene expression. Reverse Transcription (RT) of RNA and QRT-PCR were performed as follows: single stranded cDNA was generated from 3 μg of total RNA, 200 μM nucleotides, 500 units Superscript II reverse transcriptase (Invitrogen) and 1.5 μM oligo(dT)15 primers in 50 μL reactions. Reverse transcription was stopped after 1 hr by heating to 95° C. for 5 min. The primers were designed by Primer3 software: http://bioinformatics.weizmann.ac.il/cgi-bin/primer/primer3.cgi and subsequently checked for specificity using BLAST: http://www.ncbi.nlm.nih.gov/genome/seq/HsBlast.htmL. All primers and probes were synthesized by 1st BASE Pvt. Ltd., Singapore. The expression of GAPDH was used as an internal calibrator for equal RNA loading and to normalize relative expression data for all other genes analyzed. The copy ratio of each analyzed cDNA was determined as the mean of 3 experiments. The real-time quantitative RT-PCR data were quantified using relative quantification (2^−ΔΔCT) method as described [Livak, K. J, and Schmittgen, T. D. (2001) Analysis of relative gene expression data using real-time quantitative PCR and the 2(-Delta Delta C(T)) method.

MMP-2 gene transcript = assay: as above
Text: as §1, §2, §3

TIMP-2 gene = assay: as above; conditions: co-treatment with peptide, IL-1β-induced, normalized to GAPDH
Text: as §1, §2, §3

[1] = 5 μM peptide, IL-1β-induced, normalized to GAPDH
[2] = IL-1β-stimulated rabbit synovial fibroblasts in culture

`CC[C@H](C)[C@H](NC(=O)[C@H](CC(=O)O)NC(=O)[C@@H](N)C(C)C)C(=O)N[C@@H](Cc1c[nH]cn1)C(=O)N[C@H](C(=O)N[C@@H](Cc1c[nH]c2ccccc12)C(=O)N[C@@H](CC(=O)O)C(=O)NCC(=O)N[C@H](C(=O)N[C@H](C(=O)N[C@@H](CC(=O)O)C(=O)N[C@H](C(=O)N[C@@H](Cc1c[nH]cn1)C(=O)N[C@H](C(=O)N[C@@H](Cc1c[nH]c2ccccc12)C(=O)N[C@@H](CC(=O)O)C(=O)NCC(=O)N[C@H](C(=O)O)C(C)C)C(C)C)[C@@H](C)CC)C(C)C)C(C)C)C(C)C` [PIP [59-67] dimer] (H-VDIHVWDGVVDIHVWDGV-OH; N-terminus and C-terminus assumed) was tested, and the “activity of secreted MMP-9” value (secreted MMP-9) was “failed to inhibit”, the “activity of secreted MMP-9” value (secreted MMP-9; listed as dimerized peptide) was “less marked” and the “MMP-1 mRNA expression level” value (MMP-1 gene transcript; [1]) was “significantly inhibited; also recorded: significantly suppressed”. The “decrease of MMP-1 mRNA expression” value (MMP-1 gene transcript; [2]) was over 1 fold, the “MMP-2 mRNA expression level” value (MMP-2 gene transcript; [1]) was “significantly inhibited; also recorded: significantly suppressed” and the “decrease of MMP-2 mRNA expression” value (MMP-2 gene transcript; [2]) was over 1 fold. The TIMP-2 gene expression (TIMP-2 gene) was “significantly inhibited”.
